The target in one experiment is T1, murine PPARα (Mus musculus, UniProt P23204).
T1 sequence (P23204 1-468): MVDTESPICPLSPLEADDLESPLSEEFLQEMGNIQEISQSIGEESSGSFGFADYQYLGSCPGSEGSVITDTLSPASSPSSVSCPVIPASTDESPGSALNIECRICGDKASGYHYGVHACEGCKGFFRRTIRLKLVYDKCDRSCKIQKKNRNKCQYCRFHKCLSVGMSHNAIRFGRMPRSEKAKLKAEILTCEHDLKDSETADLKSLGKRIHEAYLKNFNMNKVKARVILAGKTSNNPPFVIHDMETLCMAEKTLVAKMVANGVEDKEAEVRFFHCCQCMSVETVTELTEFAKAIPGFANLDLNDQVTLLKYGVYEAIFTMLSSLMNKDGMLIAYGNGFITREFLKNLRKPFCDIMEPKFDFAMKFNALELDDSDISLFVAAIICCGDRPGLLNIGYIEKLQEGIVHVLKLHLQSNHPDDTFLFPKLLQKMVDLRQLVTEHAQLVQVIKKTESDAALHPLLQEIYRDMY
The settings on record: cited from earlier work.

For experiment [1], the target named is T2, PPARδ (Homo sapiens, UniProt Q03181).
T2 sequence (Q03181 1-441): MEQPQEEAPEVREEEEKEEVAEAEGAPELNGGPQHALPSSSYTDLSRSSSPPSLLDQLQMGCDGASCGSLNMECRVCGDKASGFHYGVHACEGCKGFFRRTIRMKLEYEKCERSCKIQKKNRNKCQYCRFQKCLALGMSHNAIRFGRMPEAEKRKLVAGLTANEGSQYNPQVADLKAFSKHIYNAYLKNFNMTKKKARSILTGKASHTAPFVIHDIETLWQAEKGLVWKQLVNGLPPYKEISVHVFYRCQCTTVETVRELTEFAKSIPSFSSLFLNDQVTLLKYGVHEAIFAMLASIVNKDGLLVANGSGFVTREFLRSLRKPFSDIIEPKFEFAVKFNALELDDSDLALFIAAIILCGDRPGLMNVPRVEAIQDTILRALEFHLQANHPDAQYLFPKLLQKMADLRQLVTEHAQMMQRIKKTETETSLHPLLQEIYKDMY
The settings on record: cited from earlier work.

Another experiment deals with T3, PPARα (Homo sapiens, UniProt Q07869).
T3 sequence (Q07869 1-468): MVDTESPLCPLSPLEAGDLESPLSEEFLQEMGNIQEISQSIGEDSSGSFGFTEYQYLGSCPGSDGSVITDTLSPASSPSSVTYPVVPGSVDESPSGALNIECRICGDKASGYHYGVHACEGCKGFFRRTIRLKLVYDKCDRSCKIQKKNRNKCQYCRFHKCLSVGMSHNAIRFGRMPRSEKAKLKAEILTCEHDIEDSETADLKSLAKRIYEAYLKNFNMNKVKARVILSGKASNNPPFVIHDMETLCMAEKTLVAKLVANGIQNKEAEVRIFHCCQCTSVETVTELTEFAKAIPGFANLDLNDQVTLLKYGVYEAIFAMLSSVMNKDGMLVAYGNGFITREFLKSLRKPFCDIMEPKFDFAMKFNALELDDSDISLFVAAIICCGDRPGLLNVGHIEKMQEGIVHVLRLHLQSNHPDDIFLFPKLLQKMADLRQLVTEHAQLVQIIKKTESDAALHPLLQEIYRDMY
The experiment in a line: Alpha screen assay, agonist mode, ligand dependent interaction of PPAR with coactivator peptide. It counts as biochemical. On the procedure: (§1) The homogenous Alpha screen assay was used in the agonist mode to determine the ligand dependent interaction of the PPARs (α,δ,γ) with the coactivator peptides (SRC or DRIP205). Briefly 15 ul of the reaction mix (50 mM Tris pH 7.5, 50 mM Kcl, 0.05% Tween 20, 1 mM DTT, 0.1% BSA and 10 nM-200 nMPPAR and […] coactivator peptide) was added to the test compound (1 ul compound in DMSO) and preincubated for 1-6 hr. Next, 5 ul of the Alpha screen beads were added. The reactions were incubated for 2 hrs before taking the reading in the Fusion alpha instrument. In the antagonist mode compounds were assayed for inhibition of the co-activator binding signal caused by the control agonists for each receptor.
(§2) The controls agonists used were WY-14643(PPAR(α), farglitazar (PPAR(γ) and bezafibrate (PPAR(δ).
(§3) Using the assay above, compounds from Table 1 were analyzed for activity. The data reported in Table 2 was generated via the alpha screen assay and expressed in μMol/L. The data points from the Fusion alpha instrument were transferred to Assay Explorer® (MDL) to generate a curve and calculate the inflection point of the curve as EC50.

The target in the next experiment is T4, PPARγ (Homo sapiens, UniProt P37231).
T4 sequence (P37231 1-505): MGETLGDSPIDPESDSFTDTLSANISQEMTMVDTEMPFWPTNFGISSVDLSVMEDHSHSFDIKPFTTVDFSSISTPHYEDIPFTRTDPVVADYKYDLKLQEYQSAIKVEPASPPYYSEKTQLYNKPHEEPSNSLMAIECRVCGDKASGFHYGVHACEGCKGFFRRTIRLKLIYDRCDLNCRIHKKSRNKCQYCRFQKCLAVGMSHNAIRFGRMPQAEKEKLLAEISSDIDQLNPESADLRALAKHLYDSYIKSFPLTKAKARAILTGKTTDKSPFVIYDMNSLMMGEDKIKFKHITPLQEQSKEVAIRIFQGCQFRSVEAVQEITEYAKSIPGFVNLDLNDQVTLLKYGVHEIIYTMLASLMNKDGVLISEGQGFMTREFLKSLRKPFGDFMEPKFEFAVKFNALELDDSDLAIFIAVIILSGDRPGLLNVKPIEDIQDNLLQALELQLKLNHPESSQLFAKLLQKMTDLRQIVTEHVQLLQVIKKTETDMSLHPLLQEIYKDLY
The description is as above. The format is biochemical. The settings on record: for EC50: Alpha screen. The procedure: as §1, §2, §3

For experiment [2], the target named is T2, PPARδ. The description is as above. It counts as biochemical. The procedure:
as §1, §2, §3

The subject of another experiment is PPARs (α,δ,γ). In words: Alpha screen assay, pan-activity across the PPARs. The settings on record: PPARα, PPARδ and PPARγ. The format is biochemical, human. The procedure: as §1, §2, §3
For experiment [3] the following is noted: large prospective trial; cited from earlier work.
Where [4] appears, read: agonist mode, read-out: PPARα agonist.
Where [5] appears, read: agonist mode, read-out: PPARγ Agonist.
Where [6] appears, read: agonist mode, read-out: PPARδ Agonist.

Read-outs that look alike come from different tables or passages of the source.

Consider `CCCc1c(OCCCOc2ccc(OCC(=O)O)cc2)ccc(C(C)=O)c1O` [L-165041], for which, at murine PPARα, the “activity on murine PPARα” value was “inactive”. The “agonist selectivity for PPARδ over PPARγ” value at PPARδ [1] is “approximately 30 fold”.
As for `COc1ccc2c(c1)c(CCC(=O)O)cn2S(=O)(=O)c1cccc(OC(F)(F)F)c1` [compound 79, 3-[5-Methoxy-1-(3-trifluoromethoxy-benzenesulfonyl)-1H-indol-3-yl]-propionic acid], the EC50 on PPARα (setting [4]), on PPARγ (setting [5]) and on PPARδ [2] (setting [6]) was not above 10 µM in each case.
With `CCCCOc1ccc(S(=O)(=O)n2cc(CCC(=O)O)c3cc(OC)ccc32)cc1` [compound 43, 3-[1-(4-Butoxy-benzenesulfonyl)-5-methoxy-1H-indol-3-yl]-propionic acid], the EC50 at PPARα (setting [4]), on PPARγ (setting [5]) and on PPARδ [2] (setting [6]) was not above 10 µM each time. In addition, the pan-activity result with PPARs (α,δ,γ) is on record as “low micromolar or even sub-micromolar”.
On to `Cc1ccc(C)c(OCCCC(C)(C)C(=O)O)c1` [gemfibrozil], for which the “reduction in cardiovascular events or death” value in experiment [3] is 22%.
As for `CCCCc1ccc(S(=O)(=O)n2cc(CCC(=O)O)c3cc(OC)ccc32)cc1` [compound 77, 3-[1-(4-Butyl-benzenesulfonyl)-5-methoxy-1H-indol-3-yl]-propionic acid], the EC50 at PPARα (setting [4]), at PPARγ (setting [5]) and at PPARδ [2] (setting [6]) was not above 10 µM throughout.
Regarding `O=C(O)CCc1nn(S(=O)(=O)c2ccccc2)c2ccccc12` [compound 39, 3-(1-Benzenesulfonyl-1H-indazol-3-yl)-propionic acid], the EC50 on PPARα (setting [4]), at PPARγ (setting [5]) and at PPARδ [2] (setting [6]) was more than 10 µM each time.
Take `O=C(O)CCc1cn(S(=O)(=O)c2ccccc2)c2ccccc12` [compound 97, 3-(1-Benzenesulfonyl-1H-indol-3-yl)-propionic acid]: the EC50 on PPARα (setting [4]), on PPARγ (setting [5]) and on PPARδ [2] (setting [6]) was more than 10 µM in each case.
For `COc1ccc2c(c1)c(CCC(=O)O)cn2C(=S)Nc1ccccc1` [compound 75, 3-(5-Methoxy-1-phenylthiocarbamoyl-1H-indol-3-yl)-propionic acid], the EC50 at PPARα (setting [4]), at PPARγ (setting [5]) and at PPARδ [2] (setting [6]) was more than 10 µM throughout.
In the case of `CCOc1ccc2c(c1)c(CCC(=O)O)cn2S(=O)(=O)c1ccccc1` [compound 82, 3-(1-Benzenesulfonyl-5-ethoxy-1H-indol-3-yl)-propionic acid], the EC50 at PPARα (setting [4]), at PPARγ (setting [5]) and on PPARδ [2] (setting [6]) was not above 10 µM each time.
As for `COc1ccc2c(c1)c(CCC(=O)O)cn2Cc1ccccc1` [compound 71, 3-(1-Benzyl-5-methoxy-1H-indol-3-yl)-propionic acid], the figures for the EC50 on PPARα (setting [4]), at PPARγ (setting [5]) and on PPARδ [2] (setting [6]) were not above 10 µM, more than 10 µM and more than 10 µM, respectively.
For `COc1ccc2c(c1)c(CCC(=O)O)cn2S(=O)(=O)c1ccccc1` [compound 29, 3-(1-Benzenesulfonyl-5-methoxy-1H-indol-3-yl)-propionic acid], the EC50 on PPARα (setting [4]), at PPARγ (setting [5]) and on PPARδ [2] (setting [6]) was not above 10 µM throughout. In addition, in the experiment on PPARs (α,δ,γ), the pan-activity result was “low micromolar or even sub-micromolar”.
Take `COc1ccc2c(c1)c(CCC(=O)O)cn2S(=O)(=O)c1ccc(Cl)cc1` [compound 49, 3-[1-(4-Chloro-benzenesulfonyl)-5-methoxy-1H-indol-3-yl]-propionic acid]: the EC50 at PPARα (setting [4]), at PPARγ (setting [5]) and on PPARδ [2] (setting [6]) was not above 10 µM each time.
For `CCc1ccc2c(c1)c(CCC(=O)O)cn2S(=O)(=O)c1ccccc1` [compound 6, 3-(1-Benzenesulfonyl-5-ethyl-1H-indol-3-yl)-propionic acid], the EC50 on PPARα (setting [4]) was more than 10 µM; at PPARα (read-out: activity on PPARα) it was not below 200 µM; on PPARγ (setting [5]), not above 10 µM; on PPARγ (read-out: activity on PPARγ), approximately 8 µM; on PPARδ [2] (setting [6]), more than 10 µM; at PPARδ [2] (read-out: activity on PPARδ) it was not below 200 µM. Further, the selectivity result at PPARγ (PPARγ versus PPARα and δ) is “selective for PPARγ”.
For `O=C(O)CCc1cn(S(=O)(=O)c2ccccc2)c2ccc(-c3ccsc3)cc12` [compound 92, 3-(Benzenesulfonyl-5-thiophen-3-yl-1H-indol-3-yl)-propionic acid], the values for the EC50 on PPARα (setting [4]), at PPARγ (setting [5]) and on PPARδ [2] (setting [6]) were not above 10 µM, not above 10 µM and more than 10 µM, respectively.
Take `COc1ccc2c(c1)c(CCC(=O)O)cn2S(=O)(=O)c1ccc(Cl)c(Cl)c1` [compound 53, 3-[1-(3,4-Dichloro-benzenesulfonyl)-5-methoxy-1H-indol-3-yl]-propionic acid]: the EC50 at PPARα (setting [4]), on PPARγ (setting [5]) and on PPARδ [2] (setting [6]) was not above 10 µM throughout. Moreover, the pan-activity result in the experiment with PPARs (α,δ,γ) is on record as “low micromolar or even sub-micromolar”.
Consider `COc1ccc2c(c1)c(CCC(=O)O)cn2C(=O)Nc1ccccc1` [compound 85, 3-(5-Methoxy-1-phenylcarbamoyl-1H-indol-3-yl)-propionic acid], for which the EC50 on PPARα (setting [4]), on PPARγ (setting [5]) and on PPARδ [2] (setting [6]) was more than 10 µM each time.
Turning to `COc1ccc2c(c1)c(CCC(=O)O)cn2C(=O)c1ccccc1` [compound 81, 3-(1-Benzoyl-5-methoxy-1H-indol-3-yl)-propionic acid], the results for the EC50 on PPARα (setting [4]), at PPARγ (setting [5]) and at PPARδ [2] (setting [6]) were not above 10 µM, more than 10 µM and more than 10 µM, respectively.

The record behind these values is US7572806B2, “PPAR active compounds” (Plexxikon, Inc., priority 2003, dated 2009).
